Source: ChEMBL document CHEMBL1126702, “Modeling the anticancer action of some retinoid compounds by making use of the OASIS method” (J Med Chem, 1993)

What was measured:
[1] = Partition coefficient (logP); format: physicochemical; details: octanol/water
Cricetinae gen. sp. = test: Tested for anticancer activity against hamster tracheal cells; format: functional, Trachea

Row | SMILES | logP ([1]; read-out: logP) | -Log ED50 (Cricetinae gen. sp.) | logP [1]
1 | CC(=O)C1=C(/C=C/C(C)=C/C=C/C(C)=C/C=O)C(C)(C)CC1 | 6.63 | 9.3 | 
2 | CCC(=O)/C=C(C)/C=C/C=C(C)/C=C/c1c(C)cc(O)c(C)c1C | 7.34 | 7 | 
3 | CC(=O)/C=C(C)/C=C/C=C(C)/C=C/C1(O)C(C)(C)CCCC1(C)O (stereo not drawn) | 4.2 | 6.7 | 
4 | CC(=O)/C=C(C)/C=C/C=C(C)/C=C/C12OC1(C)CCCC2(C)C (stereo not drawn) | 5.08 | 8.52 | 
5 | CC1=C(/C=C/C(C)=C/C=C/C(C)=C/C=O)C(C)(C)CCC1=O | 6.63 | 9.15 | 
6 | COc1cc(C)c(/C=C/C(C)=C/C=C/C(C)=C/C=O)c(C)c1C | 6.57 | 8.3 | 
7 | CC(/C=C/C=C(C)/C=C/c1ccco1)=C\C=O | 3.69 | 6 | 
8 | CCC(=O)/C=C(C)/C=C/C=C(C)/C=C/c1c(C)cc(OC)c(C)c1C | 7.22 | 7.7 | 
9 | COC(C)C1=C(/C=C/C(C)=C/C=C/C(C)=C/C=O)C(C)(C)CC1 (stereo not drawn) | 6.58 | 9.7 | 
10 | CC(/C=C/C=C(C)/C=C/c1ccccc1)=C\C=O | 5.37 | 6 | 
11 | CC(/C=C/C=C(C)/C=C/c1cccnc1)=C\C=O | 4.69 | 6.52 | 
12 | CC(/C=C/C=C(C)/C=C/C1C(C)CCCC1(C)C)=C\C=O (stereo not drawn) | 7.29 | <9 | 
13 | CCC(=O)/C=C(C)/C=C/C=C(C)/C=C/C1=C(C)CCCC1(C)C | 8.12 | 9.3 | 
14 | CC(=O)/C=C(C)/C=C/C=C(C)/C=C/C1=C(C)CCCC1(C)C | 7.63 | 9.52 | 
15 | CC1=C(/C=C/C(C)=C/C=C/C(C)=C/C=O)C(C)(C)CCC1O (stereo not drawn) | 6.1 | 9.15 | 
16 | CC(/C=C/C=C(C)/C=C/c1ccsc1)=C\C=O | 4.13 | >8 | 
17 | CC(/C=C/C=C(C)/C=C/C12OC1(C)CCCC2(C)C)=C\C=O (stereo not drawn) | 4.91 | 8.7 | 
18 | CC1=CCCC(C)(C)C1/C=C/C(C)=C/C=C/C(C)=C/C=O (stereo in doubt; 16) |  | <8 | 7.09
19 | CC1=CCCC(C)(C)C1/C=C/C(C)=C/C=C/C(C)=C/C=O (stereo in doubt; 19) | 7.47 | 10.52 | 
